{"source": "patent US8877889B2", "about": "“Tumor cell-killing peptides” (Industry-Academic Cooperation Foundation, Chosun University, priority 2009, dated 2014)", "assay_type_in_all_cases": "cell-based", "key": {"HeLa cells [1]": {"system": "HeLa cells", "assay": "Cell death after transfection of Noxa constructs, counting EGFP-positive dead cells", "details": "for cell death after over-expression: within 11 hrs after transfection (FIG. 1D); for cell death-inducing activity of Noxa point mutants: 20 hours after transfection (FIG. 3B); for cell death-inducing activity of leucine substitution mutants 4Lmt, 5Lmt: HeLa cells transfected (FIG. 8A)", "experimental": "(D) HeLa cells were transfected with deletion mutants of Noxa. At 11 hrs, 24 hrs, and 36 hrs after transfection, cell death was determined by counting EGFP-positive dead cells with morphological changes using the fluorescent microscope.\n(B) HeLa cells were transfected with WT or with the indicated Noxa mutants. 20 hours after transfection cell death was determined by counting the EGFP-positive dead and survived cells under the fluorescent microscope.\n(A) HeLa cells were transfected with either WT Noxa, 4Lmt (L42A, L43A, L45A, L49A), or 5Lmt (L29A, L42A, L43A, L45A, L49A) constructs. At the indicated times after transfection, cell death was determined by counting the EGFP-positive dead cells with morphological changes under the fluorescent microscope.\nHeLa cells were transfected with EGFP-Noxa WT and 41-54 in combination with Bcl-2 expression plasmid or in the presence of zVAD-fmk (25 μM). 18 hours after transfection, cell death was determined by counting EGFP-positive dead cells with morphological changes using the fluorescent microscope. Data represent an average±SD of three experiments each with 200 total cells counted.\nThe percentage of cell death was determined by counting EGFP-positive dead cells with morphology using the fluorescent microscope. Minimally, 300 cells in three separate fields were counted for each measurement."}, "HeLa cells [2]": {"system": "HeLa cells", "assay": "Mitochondrial localization of Noxa mutants, confocal microscopy", "details": "confocal microscopic image analysis", "from_the_text": "(B) HeLa cells were co-transfected with the pDsRed2-Mito and either Noxa 4Lmt or Noxa 5Lmt. 18 hrs after transfection the mitochondrial morphology was observed under the laser confocal microscope."}, "[3]": {"system": "CT26 mouse colon carcinoma cells", "assay": "Tumor cell killing activity, bright field images", "details": "10 μM peptide (FIG. 9A)", "experimental": "(A) CT26 cells were treated with 10 μM MTD, TU1:MTD, TU2:MTD, or TU3:MTD peptides, and bright field images for indicated peptides were obtained at indicated time points. Representative images of at least 3 individual experiments were presented."}, "HeLa cells [4]": {"system": "HeLa cells", "assay": "Measurement of intracellular calcium with Fluo-4-AM", "details": "3 μM peptide", "experimental": "(A-C) HeLa cells were loaded with 3 μM Fluo-4-AM for 30 minutes and then treated with 3 μM of indicated peptides (A: MTD, B: MTDmt3, C: MTDmt5). Fluorescence images and bright-field images were obtained with the laser scanning confocal microscope at 5-second intervals for 5 minutes. Relative fluorescence intensities (F/F0) at two region-of-interests (ROI 1 and 2) were measured at 5-second intervals for 5 minutes.\n(E-G) HeLa cells were pretreated in calcium free KRB media alone (E), in KRB media with 10 μM 2-APB and 20 μM Ryanodine (F), or in KRB media with freshly made 30 μM CsA (G) for 2 hours. HeLa cells were then loaded with 3 μM Fluo-4-AM for 30 minutes and treated with 3 μM of MTD peptide. Images were obtained with the laser scanning confocal microscope at 5-second intervals for 5 minutes. Relative fluorescence intensities (F/F0) at two region-of-interests (ROI 1 and 2) were measured at 5-second intervals for 5 minutes.\nFor Ca^2+ measurements in the cytosol, HeLa cells were cultured in an Lab-Tek™ Chamber glass slide and loaded with Fluo-4-AM (Fluo-4-acetoxymethyl ester) at a final concentration of 3 μM for 30 minutes, followed by washing with PBS (Phosphate buffered saline) at pH 7.4 and the addition of fresh Ca^2+-free Krebs-ringer modified buffer (KRB: 125 mM NaCl, 5 mM KCl, 1 mM Na3PO4, 1 mM MgSO4, 5.5 mM glucose, and 20 mM HEPES, pH 7.4, at 37° C.) containing the indicated peptides. Time-lapse images were obtained at 488 nm excitation with the Argon laser scanning confocal microscope (Leica TCS SP5 Microsystems, Mannheim, Germany) at 10-second intervals for 5 minutes to visualize Fluo-4-AM."}, "HeLa cells [5]": {"system": "HeLa cells", "assay": "Peptide-induced cell death, counting dead and survived cells under the light microscope", "details": "peptides 10 μM, 20 μM, 30 μM, 10 minutes after treatment (FIG. 1B, 3A)", "experimental": "(B) HeLa cells were treated with DMSO or the indicated peptides in increasing doses (10 μM, 20 μM, and 30 μM). % of cell death was determined at 10 minutes after treatment by counting the dead cells and survived cells under the light microscope.\n(E) HeLa cells were transfected with substitution mutants of MTD peptide.\nHeLa cells were treated with DMSO or with the indicated peptides at increasing doses (10 μM, 20 μM, or 30 μM). % cell death was determined 10 minutes after treatment by counting the dead cells and survived cells (300 cells per sample) under the light microscope.\n(D) HeLa cells were treated with indicated amounts of MTD peptide for 1 hour, 2 hours, or 5 hours. % cell death was calculated by counting the dead cells and survived cells (200 to 500 cells per sample) under the light microscope. Data represent the means±SD of three independent experiments."}, "NCI-H460 cells": {"system": "NCI-H460 cells", "assay": "Peptide-induced cell death in NCI-H460 cells", "details": "5 μM, 2 or 5 hours (FIG. 3C)", "experimental": "(C) NCI-H460 cells were treated with indicated peptides for 2 hours or 5 hours. % cell death was determined as described above."}, "HeLa cells [6]": {"system": "HeLa cells", "assay": "Caspase activation, western blot of cell lysates", "details": "5 μM peptide", "experimental": "(E) After treatment with the MTD peptide, MTDmt4, or MTDmt5 (5 μM) in HeLa cells, cell lysates were prepared at indicated times. Equal amounts of proteins were subjected to the SDS-PAGE and blotted onto PVDF membrane. After blocked with 5% nonfat milk in TBST (10 mM Tris-HCl, pH 7.5, 100 mM NaCl and 0.1% Tween-20), the membrane was probed with anti-caspase-3 (SantaCruz Biotechnology, Inc., Santa Cruz, Calif., USA), anti-caspase-8 (Cell signaling technology, Beverly, Mass., USA), anti-caspase-9 (SantaCruz Biotechnology, Inc., Santa Cruz, Calif.), anti-XIAP (Upstate Biotechnology, Dundee, United Kingdom), or anti-Bid (home-made) antibodies. Anti-actin antibody (Chemicon International, Inc., Temecula, Calif., USA) was used as equal loading control."}, "HeLa cells [7]": {"system": "HeLa cells", "assay": "Live cell images and annexin V / SYTOX Green staining of dying cells", "details": "MTD peptide 10 μM or TRAIL 100 ng/ml (FIG. 2A, 7A, 7B)", "experimental": "(A) HeLa cells were treated with MTD peptides (10 μM), or TRAIL (100 ng/ml). Images were taken at the indicated times (upper panel). Jurkat cells were treated with MTD peptide (10 μM) for 10 minutes, cells were processed for TEM. Images were obtained with 4,000× magnification (lower panel). N: nucleus, M: mitochondrion.\n(D) HeLa cells were treated with the MTD (5 μM) peptide with or without the pretreatment of 10 μM BAPTA-AM for 2 hours. Live cell images were serially acquired at 10-second intervals for 10 minutes and shown at the indicated times.\n(A) HeLa cells were stained with FITC-conjugated Annexin V antibody at 10 minutes after DMSO or MTD treatment. Images were obtained under the confocal microscope.\n(B) HeLa cells were stained with SYTOX Green 10 minutes after DMSO or MTD treatment. Images were obtained using confocal microscope."}}, "note": "Entries after “also recorded” stand apart in the source; their conditions may differ.", "data": [{"molecule": "1-30: Noxa deletion mutant which did not contain any domains (MPGKKARKNAQPSPARAPAELEVECATQLR; UniProt Q13794 1-30, looked up, fragment)", "values": [{"measurement": "cell death after over-expression", "setting": "HeLa cells [1]; HeLa cells", "result": "no effect on cell death"}]}, {"molecule": "3Lmt: Noxa triple substitution L45A, L49A and L29A (MPGKKARKNAQPSPARAPAELEVECATQARRFGDKLNFRQKLLNAISKAFCSGT; UniProt Q13794 1-54, looked up, variant L29A L45A L49A)", "values": [{"measurement": "cell death-inducing activity of Noxa point mutants", "setting": "HeLa cells [1]; HeLa cells", "result": "remarkably reduced the cell death-inducing activities"}]}, {"molecule": "4Lmt: Noxa mutant with L42A, L43A, L45A and L49A (MPGKKARKNAQPSPARAPAELEVECATQLRRFGDKLNFRQKAANAISKAFCSGT; UniProt Q13794 1-54, looked up, variant L42A L43A L45A L49A)", "values": [{"measurement": "mitochondrial localization", "setting": "HeLa cells [2]", "result": "loss of Noxa mitochondrial localization"}, {"measurement": "cell death-inducing activity of leucine substitution mutants 4Lmt, 5Lmt", "setting": "HeLa cells [1]", "result": "almost completely lost all of the cell death-inducing activity"}]}, {"molecule": "5Lmt: Noxa mutant with L29A, L42A, L43A, L45A and L49A (MPGKKARKNAQPSPARAPAELEVECATQARRFGDKLNFRQKAANAISKAFCSGT; UniProt Q13794 1-54, looked up, variant L29A L42A L43A L45A L49A)", "values": [{"measurement": "mitochondrial localization", "setting": "HeLa cells [2]", "result": "loss of Noxa mitochondrial localization"}, {"measurement": "cell death-inducing activity of leucine substitution mutants 4Lmt, 5Lmt", "setting": "HeLa cells [1]", "result": "almost completely lost all of the cell death-inducing activity"}]}, {"molecule": "21-40: Noxa deletion mutant containing only the BH3 domain (LEVECATQLRRFGDKLNFRQ; UniProt Q13794 21-40, looked up, fragment)", "values": [{"measurement": "cell death-inducing activity after over-expression, with increasing time", "setting": "HeLa cells [1]; HeLa cells, 24 hrs and 36 hrs after transfection (FIG. 1D)", "result": "strong cell death-inducing activity"}, {"measurement": "membrane morphology of transfected cells", "setting": "HeLa cells [1]; HeLa cells, data not shown", "result": "membrane blebbings"}, {"measurement": "cell death after over-expression", "setting": "HeLa cells [1]; HeLa cells", "result": "induced little cell death within 11 hrs"}]}, {"molecule": "CNGRCGGKLLNLISKLF [TU1:MTD]", "values": [{"measurement": "tumor cell killing activity", "setting": "[3]", "result": "no or little killing activity"}]}, {"molecule": "L29A: Noxa single substitution in the BH3 domain (MPGKKARKNAQPSPARAPAELEVECATQARRFGDKLNFRQKLLNLISKLFCSGT; UniProt Q13794 1-54, looked up, variant L29A)", "values": [{"measurement": "cell death-inducing activity of Noxa point mutants", "setting": "HeLa cells [1]; HeLa cells", "result": "remarkably reduced the cell death-inducing activities"}]}, {"molecule": "L42A (MPGKKARKNAQPSPARAPAELEVECATQLRRFGDKLNFRQKALNLISKLFCSGT; UniProt Q13794 1-54, looked up, variant L42A)", "values": [{"measurement": "mitochondrial localization", "setting": "HeLa cells [2]", "result": "maintained the typical mitochondrial localization of Noxa"}]}, {"molecule": "L43A (MPGKKARKNAQPSPARAPAELEVECATQLRRFGDKLNFRQKLANLISKLFCSGT; UniProt Q13794 1-54, looked up, variant L43A)", "values": [{"measurement": "mitochondrial localization", "setting": "HeLa cells [2]", "result": "maintained the typical mitochondrial localization of Noxa"}]}, {"molecule": "L45A (MPGKKARKNAQPSPARAPAELEVECATQLRRFGDKLNFRQKLLNAISKLFCSGT; UniProt Q13794 1-54, looked up, variant L45A)", "values": [{"measurement": "mitochondrial localization", "setting": "HeLa cells [2]", "result": "maintained the typical mitochondrial localization of Noxa"}, {"measurement": "cell death-inducing activity of Noxa point mutants", "setting": "HeLa cells [1]; HeLa cells", "result": "remarkably reduced the cell death-inducing activities"}]}, {"molecule": "L49A (MPGKKARKNAQPSPARAPAELEVECATQLRRFGDKLNFRQKLLNLISKAFCSGT; UniProt Q13794 1-54, looked up, variant L49A)", "values": [{"measurement": "mitochondrial localization", "setting": "HeLa cells [2]", "result": "maintained the typical mitochondrial localization of Noxa"}, {"measurement": "cell death-inducing activity of Noxa point mutants", "setting": "HeLa cells [1]; HeLa cells", "result": "remarkably reduced the cell death-inducing activities"}]}, {"molecule": "RRRRRRRRGRQKLLNAASKLF (PTD-MTDmt3 fusion peptide derived from Homo sapiens)", "values": [{"measurement": "cytosolic calcium level change", "setting": "HeLa cells [4]", "result": "did not induce changes in the cytosolic calcium level"}, {"measurement": "cell death-inducing activity (% of cell death)", "setting": "HeLa cells [5]", "result": "completely lost their cell death-inducing activities; also recorded: no cell death"}, {"measurement": "susceptibility of cells to peptide", "setting": "NCI-H460 cells", "result": "not"}]}, {"molecule": "RRRRRRRRGRQKLLNLIAALF (PTD-MTDmt4 fusion peptide derived from Homo sapiens)", "values": [{"measurement": "cell death-inducing activity (% of cell death)", "setting": "HeLa cells [5]", "result": "maintaining the killing activity"}, {"measurement": "caspase activation", "setting": "HeLa cells [6]", "result": "not activated"}]}, {"molecule": "TRAIL (protein, UniProt P50591 1-281, looked up, apoptosis inducer used at 100 ng/ml for comparison) Tumor necrosis factor ligand …: MAMMEVQGGPSLGQTCVLIVIFTVLLQSLCVAVTYVYFTNELKQMQDKYSKSGIACFLKEDDSYWDPNDEESMNSPCWQVKWQLRQLVRKMILRTSEETISTVQEKQQNISPLVRERGPQRVAAHITGTRGRSNTLSSPNSKNEKALGRKINSWESSRSGHSFLSNLHLRNGELVIHEKGFYYIYSQTYFRFQEEIKENTKNDKQMVQYIYKYTSYPDPILLMKSARNSCWSKDAEYGLYSIYQGGIFELKENDRIFVSVTNEHLIDMDHEASFFGAFLVG", "values": [{"measurement": "morphology of dying cells", "setting": "HeLa cells [7]", "result": "membrane shrinkage of apoptotic cells"}]}]}
